Measurements as given in patent publication US9834537B2, “Compounds as chloride channel blocking agent” (Korea Institute of Science and Technology, priority 2013, dated 2017).

Molecular target: calcium ion-activated chloride channel (Xenopus laevis, UniProt B5SVV6)
Assay: Patch clamp method: two-electrode voltage clamp recording on Xenopus laevis eggs, calcium-dependent chloride channel blocking activity
Type: cell-based
Experimental: Meanwhile, with regard to the novel compound represented by formula 1 according to the present invention, calcium-dependent chloride channel blocking activity was assessed by a patch clamp method according to the following experimental examples. Eggs of African Xenopus laevis were collected through surgical operation, immersed in a Barth's solution [88 mM NaCl, 1 mM KCl, 2.4 mM NaHCO3, 10 mM HEPES, 0.82 mM MgSO4, 0.33 mM Ca(NO3)2, 0.91 mM CaCl2 (all of which were purchased from Sigma Co.); 10 units/mL peniciline, and streptomycin (purchased from Gibco Co.)], and cultured in an incubator at a constant temperature of 18° C. Such prepared eggs were treated using 10 μM ionomycin (Sigma) for 30 minutes. A recording solution (96 mM NaCl, 2 mM KCl, 10 mM HEPES, 3 mM NaOH, 2 mM MgCl2, 0.5 mM EGTA, Sigma) was prepared and the eggs treated with ionomycin were rinsed using the prepared recording solution. Further, the eggs, after treating with 1 μM thapsigargin (Sigma) for 2 hours, were rinsed again using the recording solution to prepare eggs for recording. Next, an intracellular solution was prepared by adding 0.5 mM EGTA and 1 μM chelerythrine (Sigma) to 1 M KCl solution, then, charged in a glass micro-electrode. One of the prepared eggs was placed on a chamber and two micro-electrodes were stuck into both sides of the egg while dripping the recording solution over the egg. According to a protocol corresponding to purposes for experiments, two-electrode voltage clamp recording was executed to measure an electrical current.

[1] = calcium ion-activated chloride channel, Xenopus laevis eggs, two-electrode voltage clamp
[2] = Table 2 upper part, naphthyl compounds of formula 1b (scaffold drawing 37; * = position of naphthyl attachment)

Chain of calcium ion-activated chloride channel (B5SVV6 entry or part of it): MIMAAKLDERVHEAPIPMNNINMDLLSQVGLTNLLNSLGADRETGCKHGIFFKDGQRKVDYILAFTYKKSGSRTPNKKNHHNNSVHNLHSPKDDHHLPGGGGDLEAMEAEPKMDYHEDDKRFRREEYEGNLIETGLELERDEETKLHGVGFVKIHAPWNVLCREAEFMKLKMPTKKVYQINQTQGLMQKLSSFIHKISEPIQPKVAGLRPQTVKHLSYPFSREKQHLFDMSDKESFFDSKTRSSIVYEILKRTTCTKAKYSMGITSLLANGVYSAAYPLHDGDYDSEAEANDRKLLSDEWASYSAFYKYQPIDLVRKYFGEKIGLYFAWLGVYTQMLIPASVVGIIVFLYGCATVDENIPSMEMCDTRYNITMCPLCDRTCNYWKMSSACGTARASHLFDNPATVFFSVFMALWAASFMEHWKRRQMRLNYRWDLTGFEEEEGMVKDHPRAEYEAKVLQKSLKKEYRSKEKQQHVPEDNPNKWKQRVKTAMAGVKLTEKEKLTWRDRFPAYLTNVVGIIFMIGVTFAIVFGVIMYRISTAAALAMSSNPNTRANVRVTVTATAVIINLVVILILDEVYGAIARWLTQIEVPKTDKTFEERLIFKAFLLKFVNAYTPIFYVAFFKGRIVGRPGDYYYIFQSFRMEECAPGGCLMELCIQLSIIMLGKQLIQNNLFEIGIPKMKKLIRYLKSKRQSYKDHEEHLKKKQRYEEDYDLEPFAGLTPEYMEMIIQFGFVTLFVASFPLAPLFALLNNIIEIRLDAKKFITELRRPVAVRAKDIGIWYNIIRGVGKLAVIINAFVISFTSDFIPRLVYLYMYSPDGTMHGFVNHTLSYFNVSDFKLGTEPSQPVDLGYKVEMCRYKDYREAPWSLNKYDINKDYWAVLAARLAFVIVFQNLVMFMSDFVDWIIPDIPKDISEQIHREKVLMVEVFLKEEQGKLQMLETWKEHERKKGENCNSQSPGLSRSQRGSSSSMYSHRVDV

Row | Compound | IC50 [1] [µM] | IC50 [2] [µM] | IC50 (Table 2 lower part, comparison phenyl anthranilic acid compounds of Korean Patent Registration No. 892591 (scaffold drawing 38)) [µM]
1 | O=C(O)c1cccc([N+](=O)[O-])c1Nc1ccc(Cl)c2ccccc12 [Compound No. 29, N-((4-chloro)naphthyl)-3-nitroanthranilic acid] | 16.6 |  | 
2 | O=C(O)c1ccc([N+](=O)[O-])cc1Nc1cccc2ccccc12 [Compound No. 31, N-naphthyl-4-nitroanthranilic acid] | 8.5 |  | 
3 | O=C(O)c1ccc([N+](=O)[O-])cc1Nc1ccc(Cl)c2ccccc12 [Compound No. 33, N-((4-chloro)naphthyl)-4-nitroanthranilic acid] | 4.8 | 4.8 | 
4 | O=C(O)c1ccc([N+](=O)[O-])cc1Nc1ccc(Br)c2ccccc12 [Compound No. 34, N-((4-bromo)naphthyl)-4-nitroanthranilic acid] | 10.1 |  | 
5 | O=C(O)c1ccc([N+](=O)[O-])cc1Nc1ccc([N+](=O)[O-])c2ccccc12 [Compound No. 35, N-((4-nitro)naphthyl)-4-nitroanthranilic acid] | 21.6 |  | 
6 | COc1ccc(Nc2cc([N+](=O)[O-])ccc2C(=O)O)c2ccccc12 [Compound No. 36, N-((4-methoxy)naphthyl)-4-nitroanthranilic acid] | 15.2 | 15.2 | 
7 | O=C(O)c1cc([N+](=O)[O-])ccc1Nc1cccc2ccccc12 [Compound No. 40, N-naphthyl-5-nitroanthranilic acid] | 5 | 5 | 
8 | O=C(O)c1cc([N+](=O)[O-])ccc1Nc1ccc(F)c2ccccc12 [Compound No. 41, N-((4-fluoro)naphthyl)-5-nitroanthranilic acid] | 3 |  | 
9 | O=C(O)c1cc([N+](=O)[O-])ccc1Nc1ccc(Cl)c2ccccc12 [Compound No. 42, N-((4-chloro)naphthyl)-5-nitroanthranilic acid] | 8 |  | 
10 | O=C(O)c1cc([N+](=O)[O-])ccc1Nc1ccc(Br)c2ccccc12 [Compound No. 43, N-((4-bromo)naphthyl)-5-nitroanthranilic acid] | 1.5 | 1.5 | 
11 | O=C(O)c1cc([N+](=O)[O-])ccc1Nc1ccc(I)c2ccccc12 [Compound No. 44, N-((4-iodo)naphthyl)-5-nitroanthranilic acid] | 1.2 |  | 
12 | COc1ccc2ccccc2c1Nc1ccc([N+](=O)[O-])cc1C(=O)O [Compound No. 45, N-((2-methoxy)naphthyl)-5-nitroanthranilic acid] | 9.1 | 9.1 | 
13 | COc1cc(Nc2ccc([N+](=O)[O-])cc2C(=O)O)c2ccccc2c1 [Compound No. 46, N-((3-methoxy)naphthyl)-5-nitroanthranilic acid] | 1.8 | 1.8 | 
14 | COc1ccc(Nc2ccc([N+](=O)[O-])cc2C(=O)O)c2ccccc12 [Compound No. 47, N-((4-methoxy)naphthyl)-5-nitroanthranilic acid] | 2.27 | 2.27 | 
15 | COc1cccc2c(Nc3ccc([N+](=O)[O-])cc3C(=O)O)cccc12 [Compound No. 48, N-((5-methoxy)naphthyl)-5-nitroanthranilic acid] | 9.2 | 9.2 | 
16 | COc1ccc2c(Nc3ccc([N+](=O)[O-])cc3C(=O)O)cccc2c1 [Compound No. 49, N-((6-methoxy)naphthyl)-5-nitroanthranilic acid] | 1.14 | 1.14 | 
17 | COc1ccc2cccc(Nc3ccc([N+](=O)[O-])cc3C(=O)O)c2c1 [Compound No. 50, N-((7-methoxy)naphthyl)-5-nitroanthranilic acid] | 3.4 | 3.4 | 
18 | COc1cccc2cccc(Nc3ccc([N+](=O)[O-])cc3C(=O)O)c12 [Compound No. 51, N-((8-methoxy)naphthyl)-5-nitroanthranilic acid] | 8.6 | 8.6 | 
19 | O=C(O)c1ccc(C(F)(F)F)cc1Nc1ccc(Cl)c2ccccc12 [Compound No. 66, N-((4-chloro)naphthyl)-4-trifluoromethylanthranilic acid] | 5.7 |  | 
20 | O=C(O)c1c(Nc2ccc(Br)c3ccccc23)cccc1[N+](=O)[O-] [Compound No. 70, N-((4-bromo)naphthyl)-6-nitroanthranilic acid] | 8.6 |  | 
21 | O=C(O)c1cc([N+](=O)[O-])ccc1Nc1ccccc1 [drawing 38 R1=5-NO2 R3=H, reference compound] |  |  | 42.5
22 | N-naphthyl-3-nitroanthranilic acid [Compound No. 28] | 54 |  | 
23 | N-naphthyl-4-trifluoromethylanthranilic acid [Compound No. 65] | 54 |  | 
